According to patent US9670227B2, “Thienopyrimidine derivatives, a process for their preparation and pharmaceutical compositions containing them” (LES LABORATOIRES SERVIER, priority 2013, dated 2017):
Where two headings read alike, the source gives them in different places.

Key:
[1] = tested on: H929 multiple myeloma tumour line; experiment: In vitro cytotoxicity, Microculture Tetrazolium Assay; type: cell-based; conditions: H929 cells, 48 hours exposure, MTT, read-out: IC50 (μM) MTT H929
Experimental: The cytotoxicity studies were carried out on the H929 multiple myeloma tumour line.
The cells are distributed onto microplates and exposed to the test compounds for 48 hours.

Mcl-1 protein = Mcl-1 protein (UniProtKB primary accession number: Q07820) (Homo sapiens, UniProt Q07820); experiment: Inhibition of Mcl-1 by fluorescence polarisation, Method 1; type: binding; conditions: fluorescence polarisation test; Method 2 values are underlined in the patent (underlining not visible here); read-out: IC50 (M) Mcl-1 FP
Summary of the method: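 An 11-point DMSO dilution of compound is mixed with buffer (10 mM HEPES, 150 mM NaCl, 0.05% Tween 20, pH 7.4) carrying 1 nM fluorescein-labelled ligand and 5 nM Mcl-1, final concentrations. Displacement is monitored by fluorescence polarisation.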

Mcl-1 protein, sequence (Q07820 whole entry): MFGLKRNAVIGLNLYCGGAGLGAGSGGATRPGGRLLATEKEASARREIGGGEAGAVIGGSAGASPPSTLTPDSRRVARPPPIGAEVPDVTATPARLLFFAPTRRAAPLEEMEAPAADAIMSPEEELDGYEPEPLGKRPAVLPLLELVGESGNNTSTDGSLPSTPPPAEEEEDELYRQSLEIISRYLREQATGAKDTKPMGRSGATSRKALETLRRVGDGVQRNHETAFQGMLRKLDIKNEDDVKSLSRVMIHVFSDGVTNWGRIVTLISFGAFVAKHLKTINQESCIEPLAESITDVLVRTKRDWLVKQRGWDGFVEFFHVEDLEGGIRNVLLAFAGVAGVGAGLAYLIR

SMILES | IC50 ([1]; Homo sapiens, NCI-H929, 48 h) | IC50 (Mcl-1 protein) | IC50 [1]
Cc1c(-c2c(-c3ccco3)sc3ncnc(OC(Cc4cccc(F)c4)C(=O)O)c23)ccc(OCCN2CCN(C)CC2)c1Cl [Example 348, (2R)-2-{[(5Sa)-5-{3-chloro-2-methyl-4-[2-(4-methylpiperazin-1-yl)ethoxy]phenyl}-6-(furan-2-yl)thieno[2,3-d]pyrimidin-4-yl]oxy}-3-(3-fluorophenyl)propanoic acid] | 0.346 µM | 2.1e-08 M | –
COc1cccc(CC(Oc2ncnc3sc(-c4ccco4)c(-c4ccc(OCCN5CCN(C)CC5)c(Cl)c4C)c23)C(=O)O)c1 [Example 349, (2R)-2-{[(5Sa)-5-{3-chloro-2-methyl-4-[2-(4-methylpiperazin-1-yl)ethoxy]phenyl}-6-(furan-2-yl)thieno[2,3-d]pyrimidin-4-yl]oxy}-3-(3-methoxyphenyl)propanoic acid] | 2.46 µM | 2.7e-08 M | –
COc1c(C)cccc1CC(Oc1ncnc2sc(-c3ccco3)c(-c3ccc(OCCN4CCN(C)CC4)c(Cl)c3C)c12)C(=O)O [Example 351, (2R)-2-{[(5Sa)-5-{3-chloro-2-methyl-4-[2-(4-methylpiperazin-1-yl)ethoxy]phenyl}-6-(furan-2-yl)thieno[2,3-d]pyrimidin-4-yl]oxy}-3-(2-methoxy-3-methylphenyl)propanoic acid] | 0.526 µM | 1.5e-08 M | –
COc1c(F)cccc1CC(Oc1ncnc2sc(-c3ccco3)c(-c3ccc(OCCN4CCN(C)CC4)c(Cl)c3C)c12)C(=O)O [Example 352, (2R)-2-{[(5Sa)-5-{3-chloro-2-methyl-4-[2-(4-methylpiperazin-1-yl)ethoxy]phenyl}-6-(furan-2-yl)thieno[2,3-d]pyrimidin-4-yl]oxy}-3-(3-fluoro-2-methoxyphenyl)propanoic acid] | 0.91 µM | 1.4e-08 M | –
Cc1ccccc1CC(Oc1ncnc2sc(-c3ccco3)c(-c3ccc(OCCN4CCN(C)CC4)c(Cl)c3C)c12)C(=O)O [Example 354, (2R)-2-{[(5Sa)-5-{3-chloro-2-methyl-4-[2-(4-methylpiperazin-1-yl)ethoxy]phenyl}-6-(furan-2-yl)thieno[2,3-d]pyrimidin-4-yl]oxy}-3-(2-methylphenyl)propanoic acid] | 0.544 µM | 1.1e-08 M | –
Cc1c(-c2c(-c3ccco3)sc3ncnc(OC(Cc4ccccc4F)C(=O)O)c23)ccc(OCCN2CCN(C)CC2)c1Cl [Example 357, (2R)-2-{[(5Sa)-5-{3-chloro-2-methyl-4-[2-(4-methylpiperazin-1-yl)ethoxy]phenyl}-6-(furan-2-yl)thieno[2,3-d]pyrimidin-4-yl]oxy}-3-(2-fluorophenyl)propanoic acid] | – | 5.5e-07 M | 3.39 µM
Cc1c(-c2c(-c3ccco3)sc3ncnc(OC(Cc4ccccc4NC(=O)OC(C)(C)C)C(=O)O)c23)ccc(OCCN2CCN(C)CC2)c1Cl [Example 358, (2R)-3-{2-[(tert-butoxycarbonyl)amino]phenyl}-2-{[(5Sa)-5-{3-chloro-2-methyl-4-[2-(4-methylpiperazin-1-yl)ethoxy]phenyl}-6-(furan-2-yl)thieno[2,3-d]pyrimidin-4-yl]oxy}propanoic acid] | 1.61 µM | 9.5e-09 M | –
Cc1c(-c2c(-c3ccco3)sc3ncnc(OC(Cc4ccccc4SCC(F)(F)F)C(=O)O)c23)ccc(OCCN2CCN(C)CC2)c1Cl [Example 362, (2R)-2-{[(5Sa)-5-{3-chloro-2-methyl-4-[2-(4-methylpiperazin-1-yl)ethoxy]phenyl}-6-(furan-2-yl)thieno[2,3-d]pyrimidin-4-yl]oxy}-3-{2-[(2,2,2-trifluoroethyl)sulfanyl]phenyl}propanoic acid] | 1 µM | 2.6e-08 M | –
Cc1c(-c2c(-c3ccc(Cl)o3)sc3ncnc(OC(Cc4ccccc4OCC4CCCO4)C(=O)O)c23)ccc(OCCN2CCN(C)CC2)c1Cl [Example 364, (2R)-2-{[6-(5-chlorofuran-2-yl)-(5Sa)-5-{3-chloro-2-methyl-4-[2-(4-methylpiperazin-1-yl)ethoxy]phenyl}thieno[2,3-d]pyrimidin-4-yl]oxy}-3-{2-[(2R)-tetrahydrofuran-2-ylmethoxy]phenyl}propanoic acid] | 0.052 µM | 5.1e-09 M | –
Cc1c(-c2c(-c3ccc(Cl)o3)sc3ncnc(OC(Cc4ccccc4OCC(F)(F)F)C(=O)O)c23)ccc(OCCN2CCN(C)CC2)c1Cl [Example 365, (2R)-2-{[6-(5-chlorofuran-2-yl)-(5Sa)-5-{3-chloro-2-methyl-4-[2-(4-methylpiperazin-1-yl)ethoxy]phenyl}thieno[2,3-d]pyrimidin-4-yl]oxy}-3-[2-(2,2,2-trifluoroethoxy)phenyl]propanoic acid] | 0.026 µM | 5.9e-09 M | –
Cc1c(-c2c(-c3ccc(Cl)o3)sc3ncnc(OC(Cc4ccccc4OCc4ccccn4)C(=O)O)c23)ccc(OCCN2CCN(C)CC2)c1Cl [Example 366, (2R)-2-{[6-(5-chlorofuran-2-yl)-(5Sa)-5-{3-chloro-2-methyl-4-[2-(4-methylpiperazin-1-yl)ethoxy]phenyl}thieno[2,3-d]pyrimidin-4-yl]oxy}-3-[2-(pyridin-2-ylmethoxy)phenyl]propanoic acid] | 0.346 µM | 8.6e-09 M | –
Cc1c(-c2c(-c3ccc(Cl)o3)sc3ncnc(OC(Cc4ccccc4OCc4ccnc(C(F)(F)F)n4)C(=O)O)c23)ccc(OCCN2CCN(C)CC2)c1Cl [Example 367, (2R)-2-{[6-(5-chlorofuran-2-yl)-(5Sa)-5-{3-chloro-2-methyl-4-[2-(4-methylpiperazin-1-yl)ethoxy]phenyl}thieno[2,3-d]pyrimidin-4-yl]oxy}-3-(2-{[2-(trifluoromethyl)pyrimidin-4-yl]methoxy}phenyl)propanoic acid] | 0.015 µM | 3.2e-09 M | –
Cc1c(-c2c(-c3ccc(Cl)o3)sc3ncnc(OC(Cc4ccccc4OCc4ccnc(N5CCOCC5)n4)C(=O)O)c23)ccc(OCCN2CCN(C)CC2)c1Cl [Example 368, (2R)-2-{[6-(5-chlorofuran-2-yl)-(5Sa)-5-{3-chloro-2-methyl-4-[2-(4-methylpiperazin-1-yl)ethoxy]phenyl}thieno[2,3-d]pyrimidin-4-yl]oxy}-3-(2-{[2-(morpholin-4-yl)pyrimidin-4-yl]methoxy}phenyl)propanoic acid] | 0.005 µM | 1.4e-08 M | –
COc1nccc(COc2ccccc2CC(Oc2ncnc3sc(-c4ccc(Cl)o4)c(-c4ccc(OCCN5CCN(C)CC5)c(Cl)c4C)c23)C(=O)O)n1 [Example 369, (2R)-2-{[6-(5-chlorofuran-2-yl)-(5Sa)-5-{3-chloro-2-methyl-4-[2-(4-methylpiperazin-1-yl)ethoxy]phenyl}thieno[2,3-d]pyrimidin-4-yl]oxy}-3-{2-[(2-methoxypyrimidin-4-yl)methoxy]phenyl}propanoic acid] | 0.009 µM | 5.1e-09 M | –
Cc1c(-c2c(-c3ccc(Cl)o3)sc3ncnc(OC(Cc4ccccc4OCc4ccncn4)C(=O)O)c23)ccc(OCCN2CCN(C)CC2)c1Cl [Example 370, (2R)-2-{[6-(5-chlorofuran-2-yl)-(5Sa)-5-{3-chloro-2-methyl-4-[2-(4-methylpiperazin-1-yl)ethoxy]phenyl}thieno[2,3-d]pyrimidin-4-yl]oxy}-3-[2-(pyrimidin-4-ylmethoxy)phenyl]propanoic acid] | 0.018 µM | 8.7e-09 M | –
Cc1c(-c2c(-c3ccc(Cl)o3)sc3ncnc(OC(Cc4ccccc4OCc4ccnn4C)C(=O)O)c23)ccc(OCCN2CCN(C)CC2)c1Cl [Example 371, (2R)-2-{[6-(5-chlorofuran-2-yl)-(5Sa)-5-{3-chloro-2-methyl-4-[2-(4-methylpiperazin-1-yl)ethoxy]phenyl}thieno[2,3-d]pyrimidin-4-yl]oxy}-3-{2-[(1-methyl-1H-pyrazol-5-yl)methoxy]phenyl}propanoic acid] | 0.027 µM | 5.6e-09 M | –
CCn1nccc1COc1ccccc1CC(Oc1ncnc2sc(-c3ccc(Cl)o3)c(-c3ccc(OCCN4CCN(C)CC4)c(Cl)c3C)c12)C(=O)O [Example 372, (2R)-2-{[6-(5-chlorofuran-2-yl)-(5Sa)-5-{3-chloro-2-methyl-4-[2-(4-methylpiperazin-1-yl)ethoxy]phenyl}thieno[2,3-d]pyrimidin-4-yl]oxy}-3-{2-[(1-ethyl-1H-pyrazol-5-yl)methoxy]phenyl}propanoic acid] | 0.018 µM | 9.7e-09 M | –
Cc1c(-c2c(-c3ccc(Cl)o3)sc3ncnc(OC(Cc4ccccc4OCc4ccnn4CC(F)(F)F)C(=O)O)c23)ccc(OCCN2CCN(C)CC2)c1Cl [Example 373, (2R)-2-{[6-(5-chlorofuran-2-yl)-(5Sa)-5-{3-chloro-2-methyl-4-[2-(4-methylpiperazin-1-yl)ethoxy]phenyl}thieno[2,3-d]pyrimidin-4-yl]oxy}-3-(2-{[1-(2,2,2-trifluoroethyl)-1H-pyrazol-5-yl]methoxy}phenyl)propanoic acid] | 0.012 µM | 4.6e-09 M | –
Cc1c(-c2c(-c3ccc(Cl)o3)sc3ncnc(OC(Cc4ccccc4OCc4cnccn4)C(=O)O)c23)ccc(OCCN2CCN(C)CC2)c1Cl [Example 374, (2R)-2-{[6-(5-chlorofuran-2-yl)-(5Sa)-5-{3-chloro-2-methyl-4-[2-(4-methylpiperazin-1-yl)ethoxy]phenyl}thieno[2,3-d]pyrimidin-4-yl]oxy}-3-[2-(pyrazin-2-ylmethoxy)phenyl]propanoic acid] | 0.038 µM | 9.2e-09 M | –
Cc1c(-c2c(-c3ccc(Cl)o3)sc3ncnc(OC(Cc4ccccc4OCc4cncnc4)C(=O)O)c23)ccc(OCCN2CCN(C)CC2)c1Cl [Example 375, (2R)-2-{[6-(5-chlorofuran-2-yl)-(5Sa)-5-{3-chloro-2-methyl-4-[2-(4-methylpiperazin-1-yl)ethoxy]phenyl}thieno[2,3-d]pyrimidin-4-yl]oxy}-3-[2-(pyrimidin-5-ylmethoxy)phenyl]propanoic acid] | 0.081 µM | 5.6e-09 M | –
